Data as given in article PMC12133303, “Characterisation of RNA guanine-7 methyltransferase (RNMT) using a small molecule approach” (Biochemical Journal, 2025).
Like-named read-outs stand apart in the source and are kept apart here.

Legend:
Avi-HsRNMT-RAM = molecular target: T1, Avi-HsRNMT-RAM (Homo sapiens, UniProt O43148); test: SPR binding to immobilised Avi-HsRNMT-RAM; details: for kon: read-out: ka
T1 construct: Both HsRNMT full-length proteins (1-476) in complex with HsRAM (1-90) (HsRNMT-RAM and Avi-HsRNMT-RAM); hexa-His tag (TEV-cleavable) (N, cleaved yes); made in house; host or cells: Escherichia coli BL21 (DE3), co-transformed with pCDFduet-BirA
T1 sequence (O43148 whole entry): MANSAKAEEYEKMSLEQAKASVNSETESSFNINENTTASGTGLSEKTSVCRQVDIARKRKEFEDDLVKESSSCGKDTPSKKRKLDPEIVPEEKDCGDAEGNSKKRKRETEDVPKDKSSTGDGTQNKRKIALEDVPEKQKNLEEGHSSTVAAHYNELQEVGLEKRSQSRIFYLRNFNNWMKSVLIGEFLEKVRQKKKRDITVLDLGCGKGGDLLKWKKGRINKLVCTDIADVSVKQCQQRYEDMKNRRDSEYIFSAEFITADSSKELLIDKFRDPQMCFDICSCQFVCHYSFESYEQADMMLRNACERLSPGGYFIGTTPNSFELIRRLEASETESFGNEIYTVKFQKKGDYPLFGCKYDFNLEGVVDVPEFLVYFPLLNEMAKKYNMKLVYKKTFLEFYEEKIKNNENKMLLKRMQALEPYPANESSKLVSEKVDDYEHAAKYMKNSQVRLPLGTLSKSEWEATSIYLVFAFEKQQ
T1 sequence (Q9BTL3 1-90 partner limits assumed): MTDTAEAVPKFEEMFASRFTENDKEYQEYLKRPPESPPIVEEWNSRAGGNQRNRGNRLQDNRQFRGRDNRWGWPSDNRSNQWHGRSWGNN
Excerpt: To elucidate the cap-binding mode, full-length HsRNMT in complex with activating subunit RAM (Avi-HsRNMT-RAM) was investigated by surface plasmon resonance (SPR). We first measured the kinetic and equilibrium binding constants (KD) for SAM (Figure 3A), SAH (Figure 3B), and Sinefungin (Figure 3C). The kinetics of binding for these compounds appear very similar with a rapid onset of binding reaching a steady state within a few seconds. The loss of binding on washing with buffer was very similar.
Studies of binding kinetics were performed on a Biacore™ 8K + instrument (GE Healthcare). […] Compounds were tested in duplicate in a three-fold, eight-point serial dilution series in immobilisation buffer supplemented with 1% DMSO, with a flow rate of 30 μL min^-1, a contact time of 60 s and a dissociation time of 120 s at 25°C.
All monitored binding resonance signals were referenced with responses from unmodified reference surfaces, corrected for bulk shifts arising from differences in DMSO concentrations between samples and running buffer (solvent correction) and blank-referenced. Analysis was performed using the Biacore™ Insight Evaluation Software 2.0 with data fitted using the Langmuir 1:1 model.
The full-length HsRNMT complexed with HsRAM 1–90 (Avi-HsRNMT-RAM) was immobilised onto a Series S high-affinity SA sensor chip via C-terminal Avi-tag capture in HBS-P + buffer (10 mM HEPES, 150 mM NaCl, 0.5 mM TCEP) to an immobilisation level of 2200 RU, and the titration was performed at 15°C.

HsRNMT-RAM [1] = molecular target: T2, HsRNMT-RAM (Homo sapiens, UniProt O43148); test: Mode of inhibition experiments (RapidFire assay); details: for Ki: Ki (95% CI)
T2 sequence (O43148 whole entry): as the sequence (O43148 whole entry) above
T2 sequence (Q9BTL3 1-90 partner limits assumed): as the sequence (Q9BTL3 1-90 partner limits assumed) above
Experimental: An endpoint 384-well plate assay for HsRMNT-RAM activity was developed using the Agilent RapidFire 365 high-throughput system with integrated SPE interfaced with the Agilent 6740 triple quadrupole mass spectrometer. The assay was performed by mixing 5 nM HsRNMT-RAM in buffer (20 mM Tris, pH 8.0, 50 mM NaCl) supplemented with 1 mM EDTA, 1 mM DTT, 0.1 mg/mL BSA, 0.005% Nonidet P40 (Roche) and 3 mM MgCl2 with 2 µM of substrates (G(5′)ppp(5′)G Sodium Salt (cap) [New England Biolabs, Ipswich, MA]) and S-(5′-Adenosyl)-L-methionine chloride dihydrochloride (SAM [Cayman Chemical, Ann Arbor, MI]). The enzymatic reaction incubated for 60 minutes at room temperature followed by quenching with 80 μL 1% formic acid (VWR, Radnor, PA) containing 0.03 µg/µL S-adenosylhomocysteine-d4 (d4SAH [Cambridge Bioscience, Cambridge, U.K]). Plates were centrifuged at 500×g for 1 minute after every addition and sealed using the PlateLoc thermal microplate sealer before analysis on the RapidFire. Samples were loaded onto the RapidFire system, and analysis was performed as described for the identification of inhibitors of the SARS-CoV-2 guanine-N7-methyltransferase [32].
Mode of inhibition experiments were carried out by testing enzymatic activity at a range of compound and substrate concentrations. Compounds were tested at five different concentrations selected around the pIC50 against five substrate concentrations (between 2.2 and 20 µM). The data were fitted globally to equations describing inhibition [47] to determine the respective kinetic constants. All analyses were performed in Sigmaplot Version 14.0.3.192.
Where relevant, data are presented as the mean of three independent experiments with 95% CI.

HsRNMT-RAM [2] = molecular target: T2, HsRNMT-RAM; test: Isothermal titration calorimetry (ITC); assay type: binding; parameters: For biochemical assays, full-length HsRNMT (1-476) was cloned in the pOPC bi-cistronic plasmid; His-MBP (TEV-cleavable) (cleaved yes); made in house; host or cells: Escherichia coli BL21 (DE3); details: for ΔG / ΔH / −TΔS: 25 mM HEPES pH7.5, 150 mM NaCl, 1 mM TCEP with 10 mM Sinefungin or SAH at 298°K; for Kd: protein pretreated with Sinefungin or SAH
Experimental: For both DDD1060606 and DDD1870799, we determined the enthalpic and entropic components of the free energy of binding to HsRNMT-RAM to guide both compound selection and the optimisation process. Note that all of the isothermal titration calorimetry (ITC) experiments were performed with protein pretreated with SAH or Sinefungin. We used cap as the reference ligand as it is widely accepted that ligands with more negative enthalpies of binding provide better starting points for lead optimisation. The interaction of cap with HsRNMT-RAM is enthalpically driven with an ΔH of −33.5 kcal/mol (Figure 9A) and net free energy change, ΔG of −8.4 kcal/mol (Figure 9B). Furthermore, we determined the binding affinities for DDD1060606 and DDD1870799 to HsRNMT-RAM.
[…] Working stock for ligands and protein complex was prepared at the required concentration by diluting the stocks with the dialysis buffer. The DMSO concentrations in the cell and syringe solutions were matched to 2.5% for the compound (DDD1060606 or DDD1870799) titrations. Experiments were performed using 13 injections of 3 μL of ligand using Malvern PEAQ-ITC system at 25°C, at 750 rpm with reference power set to 7 μcal/s. The thermograms were analysed using MicroCal PEAQ-ITC Analysis Software, blanked to ligand control and fit to One Set of Sites Model.

HsRNMT-RAM [3] = molecular target: T2, HsRNMT-RAM; test: RapidFire mass spectrometry assay, inhibition dose response; assay type: biochemical; parameters: For biochemical assays, full-length HsRNMT (1-476) was cloned in the pOPC bi-cistronic plasmid; His-MBP (TEV-cleavable) (cleaved yes); made in house; host or cells: Escherichia coli BL21 (DE3); details: for IC50: 5 nM HsRNMT-RAM, 2 µM SAM, 2 µM cap, 60 minutes, 10 point 1:3 dilutions from 100 μM, read-out: pIC50 (negative logarithm of half-maximal inhibitory concentration [molar]) (converted)
HsRNMT-RAM [4] = molecular target: T2, HsRNMT-RAM; test: Km determinations (RapidFire Mass Spec assay); assay type: biochemical; parameters: For biochemical assays, full-length HsRNMT (1-476) was cloned in the pOPC bi-cistronic plasmid; His-MBP (TEV-cleavable) (cleaved yes); made in house; host or cells: Escherichia coli BL21 (DE3); details: SAM 40 to 0.08 µM, saturating cap (40 µM), 5 nM enzyme; mean of three experiments [95% CI]
Experimental: Experiments to determine the Km^app values were carried out using a two-fold dilution of cap or SAM from 40 to 0.08 µM and a saturating concentration (40 µM) of SAM (Km^app cap) or cap (Km^app SAM). HsRNMT-RAM was used at 5 nM. Data were analysed to calculate the initial velocity (V0). Km^app and Vmax values were determined by nonlinear regression analysis fitted to the Michaelis–Menten equation [46] using Sigmaplot Version 14.0.3.192.

[5] = SPR, no co-ligand, Langmuir 1:1 model
[6] = SPR, no co-ligand, read-out: KD (kinetic)
[7] = SPR, no co-ligand, read-out: KD (steady state)
[8] = SPR, inhibitor titrated in presence of SAH
[9] = SPR, inhibitor titrated in presence of SAH, read-out: KD (kinetic)
[10] = SPR, inhibitor titrated in presence of SAH, read-out: KD (steady state)
[11] = SPR, inhibitor titrated in presence of SAM
[12] = SPR, inhibitor titrated, no co-ligand
[13] = SPR, ligand titrated in presence of SAH
[14] = SPR, ligand titrated in presence of Sinefungin (saturating, 1 µM), 15°C

Nc1ncnc2c1ncn2[C@@H]1O[C@H](CSCC[C@H](N)C(=O)O)[C@@H](O)[C@H]1O [SAH, S-adenosylhomocysteine]
Rmax (Avi-HsRNMT-RAM; SPR, no co-ligand): 14.3 RU | kd (Avi-HsRNMT-RAM; [5]): 0.072 s⁻¹ | Kd (Avi-HsRNMT-RAM; [6]): 19 nM | Kd (Avi-HsRNMT-RAM; [7]): 18 nM | kon (Avi-HsRNMT-RAM): 3.8e+06 M⁻¹ s⁻¹

Nc1nc(O)c2ncn([C@@H]3O[C@H](COP(=O)(O)OP(=O)(O)NP(=O)(O)O)[C@@H](O)[C@H]3O)c2n1 [GMP-PnP, guanosine 5′-[β,γ-imido]triphosphate, reference compound]
Ki (HsRNMT-RAM [1]; Ki cap, against cap): 2300 nM | mode of inhibition with cap (HsRNMT-RAM [1]; against cap): competitive

O=C(Cc1ccc(F)cc1)N1CCCC(c2n[nH]c3nc(O)ccc23)C1 (stereo not drawn) [DDD1870799]
Rmax (Avi-HsRNMT-RAM; [8]): 13.3 RU | kd (Avi-HsRNMT-RAM; [8]): 0.45 s⁻¹ | Kd (Avi-HsRNMT-RAM; [9]): 2500 nM | Kd (Avi-HsRNMT-RAM; [10]): 2300 nM | KD (kinetic) (Avi-HsRNMT-RAM; [11]): No binding | KD (steady state) (Avi-HsRNMT-RAM; [11]): No binding | Rmax (Avi-HsRNMT-RAM; [11]): No binding | ka (Avi-HsRNMT-RAM; [11]): No binding | kd (Avi-HsRNMT-RAM; [11]): No binding | KD (kinetic) (Avi-HsRNMT-RAM; [12]): No binding | KD (steady state) (Avi-HsRNMT-RAM; [12]): No binding | Rmax (Avi-HsRNMT-RAM; [12]): No binding | ka (Avi-HsRNMT-RAM; [12]): No binding | kd (Avi-HsRNMT-RAM; [12]): No binding | ΔG (HsRNMT-RAM [2]): -7.5 kcal/mol | ΔH (HsRNMT-RAM [2]): -6.2 kcal/mol | −TΔS (HsRNMT-RAM [2]): -1.3 kcal/mol | net enthalpic change ΔΔH (HsRNMT-RAM [2]; DDD1870799 in comparison with DDD1060606): -1.9 kcal/mol | Kd (HsRNMT-RAM [2]): 2900 nM | inhibition of HsRNMT-RAM activity (HsRNMT-RAM [3]): > 80% | IC50 (HsRNMT-RAM [3]): 10 µM | Ki (HsRNMT-RAM [1]; Ki SAM, against SAM): 3400 nM | Ki (HsRNMT-RAM [1]; Ki cap, against cap): 3300 nM | mode of inhibition with SAM (HsRNMT-RAM [1]; against SAM): Uncompetitive | mode of inhibition with cap (HsRNMT-RAM [1]; against cap): Uncompetitive

Nc1nc2c(ncn2[C@@H]2O[C@H](COP(=O)(O)OP(=O)(O)OP(=O)(O)OC[C@H]3O[C@@H](n4cnc5c(=O)[nH]c(N)nc54)[C@H](O)[C@@H]3O)[C@@H](O)[C@H]2O)c(=O)[nH]1 [Cap, G(5′)ppp(5′)G]
KD (kinetic) (Avi-HsRNMT-RAM; [13]): No binding | KD (steady state) (Avi-HsRNMT-RAM; [13]): No binding | Rmax (Avi-HsRNMT-RAM; [13]): No binding | ka (Avi-HsRNMT-RAM; [13]): No binding | kd (Avi-HsRNMT-RAM; [13]): No binding | KD (kinetic) (Avi-HsRNMT-RAM; SPR, ligand titrated in presence of SAH, listed as cap): No interaction | Rmax (Avi-HsRNMT-RAM; [14]): 11.8 RU | kd (Avi-HsRNMT-RAM; [14]): 0.025 s⁻¹ | Kd (Avi-HsRNMT-RAM; SPR, ligand titrated in presence of Sinefungin (saturating, 1 µM), 15°C, read-out: KD (kinetic)): 20 nM | Kd (Avi-HsRNMT-RAM; SPR, ligand titrated in presence of Sinefungin (saturating, 1 µM), 15°C, read-out: KD (steady state)): 35 nM | kon (Avi-HsRNMT-RAM; [14]): 1.2e+06 M⁻¹ s⁻¹ | KD (kinetic) (Avi-HsRNMT-RAM; SPR, no co-ligand): No binding | KD (steady state) (Avi-HsRNMT-RAM; SPR, no co-ligand): No binding | Rmax (Avi-HsRNMT-RAM; SPR, no co-ligand): No binding | ka (Avi-HsRNMT-RAM; [5]): No binding | kd (Avi-HsRNMT-RAM; [5]): No binding | KD (kinetic) (Avi-HsRNMT-RAM; SPR, no co-ligand, listed as cap): No interaction | ΔG (HsRNMT-RAM [2]): -8.4 kcal/mol | ΔH (HsRNMT-RAM [2]): -33.5 kcal/mol | −TΔS (HsRNMT-RAM [2]): 25.1 kcal/mol | Kd (HsRNMT-RAM [2]): 700 nM

O=C(Cc1ccsc1)N1CCCC(c2n[nH]c3ncccc23)C1 (stereo not drawn) [DDD1060606]
Rmax (Avi-HsRNMT-RAM; [8]): 13.2 RU | kd (Avi-HsRNMT-RAM; [8]): 0.27 s⁻¹ | Kd (Avi-HsRNMT-RAM; [9]): 1600 nM | Kd (Avi-HsRNMT-RAM; [10]): 1400 nM | KD (kinetic) (Avi-HsRNMT-RAM; [11]): No binding | KD (steady state) (Avi-HsRNMT-RAM; [11]): No binding | Rmax (Avi-HsRNMT-RAM; [11]): No binding | ka (Avi-HsRNMT-RAM; [11]): No binding | kd (Avi-HsRNMT-RAM; [11]): No binding | KD (kinetic) (Avi-HsRNMT-RAM; [12]): No binding | KD (steady state) (Avi-HsRNMT-RAM; [12]): No binding | Rmax (Avi-HsRNMT-RAM; [12]): No binding | ka (Avi-HsRNMT-RAM; [12]): No binding | kd (Avi-HsRNMT-RAM; [12]): No binding | ΔG (HsRNMT-RAM [2]): -7.5 kcal/mol | ΔH (HsRNMT-RAM [2]): -4.3 kcal/mol | −TΔS (HsRNMT-RAM [2]): -3.1 kcal/mol | entropic contribution Δ(TΔS) (HsRNMT-RAM [2]; DDD1060606 compared with DDD1870799): -1.8 kcal/mol | Kd (HsRNMT-RAM [2]): 3200 nM | inhibition of HsRNMT-RAM activity (HsRNMT-RAM [3]): > 80% | IC50 (HsRNMT-RAM [3]): 3.16 µM | Ki (HsRNMT-RAM [1]; Ki SAM, against SAM): 1600 nM | Ki (HsRNMT-RAM [1]; Ki cap, against cap): 1600 nM | mode of inhibition with SAM (HsRNMT-RAM [1]; against SAM): Uncompetitive | mode of inhibition with cap (HsRNMT-RAM [1]; against cap): Uncompetitive

Nc1ncnc2c1ncn2[C@@H]1O[C@H](C[C@@H](N)CC[C@H](N)C(=O)O)[C@@H](O)[C@H]1O [Sinefungin, reference compound]
Rmax (Avi-HsRNMT-RAM; SPR, no co-ligand): 14.2 RU | kd (Avi-HsRNMT-RAM; [5]): 0.092 s⁻¹ | Kd (Avi-HsRNMT-RAM; [6]): 77 nM | Kd (Avi-HsRNMT-RAM; [7]): 73 nM | kon (Avi-HsRNMT-RAM): 1.2e+06 M⁻¹ s⁻¹ | Ki (HsRNMT-RAM [1]; Ki SAM, against SAM): 6.8 nM | Ki (HsRNMT-RAM [1]; Ki cap, against cap): 104 nM | mode of inhibition with SAM (HsRNMT-RAM [1]; against SAM): competitive inhibition | mode of inhibition with cap (HsRNMT-RAM [1]; against cap): non-competitive inhibition

C[S+](CC[C@H](N)C(=O)[O-])C[C@H]1O[C@@H](n2cnc3c(N)ncnc32)[C@H](O)[C@@H]1O (stereo partly drawn) [SAM, S-adenosylmethionine]
Rmax (Avi-HsRNMT-RAM; SPR, no co-ligand): 14.9 RU | kd (Avi-HsRNMT-RAM; [5]): 0.1 s⁻¹ | Kd (Avi-HsRNMT-RAM; [6]): 79 nM | Kd (Avi-HsRNMT-RAM; [7]): 89 nM | kon (Avi-HsRNMT-RAM): 1.2e+06 M⁻¹ s⁻¹ | Km (HsRNMT-RAM [4]): 1600 nM
